According to the supplement of paper PMC11061612:

What was measured:
Assay in all cases: combination Emax (second highest fraction inhibited in the dose matrix, 72 h); higher = more inhibition; extreme values may be limits of the assay
[1] = system: HeLa (Cervical Carcinoma)
How it was run: (§1)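 After 24 hours at 37°C and 5% CO2 in 1536-well plates, cells in DMEM/F12 or RPMI plus 10% FBS received two-drug dose matrices for 72 hours. Viability came from CellTiter-Glo 2.0 luminescence and was scaled as inhibition, anchored at 0 by vehicle wells and at 1 by blank wells. Combination Emax is taken as the second-highest inhibition in the matrix, and Bliss excess as the observed combination effect less EA + EB − EA·EB, with EA and EB the single-agent effects.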

[2] = system: BFTC-909 (Kidney Carcinoma)
How it was run: as §1

[3] = system: WSU-NHL (B-Cell Non-Hodgkin's Lymphoma)
How it was run: as §1

[4] = system: Hs-746T (Gastric Carcinoma)
How it was run: as §1

[5] = system: NCI-H524 (Small Cell Lung Carcinoma)
How it was run: as §1

[6] = system: OV-56 (Ovarian Carcinoma)
How it was run: as §1

[7] = system: SNU-16 (Gastric Carcinoma)
How it was run: as §1

[8] = system: NCI-H2722 (Mesothelioma)
How it was run: as §1

[9] = system: GAMG (Glioblastoma)
How it was run: as §1

[10] = system: ALL-PO (B-Lymphoblastic Leukemia)
How it was run: as §1

[11] = system: EW-11 (Ewing's Sarcoma)
How it was run: as §1

[12] = system: KYAE-1 (Esophageal Adenocarcinoma)
How it was run: as §1

[13] = system: LCLC-97TM1 (Non-Small Cell Lung Carcinoma)
How it was run: as §1

[14] = system: SAS (Oral Cavity Carcinoma)
How it was run: as §1

[15] = system: LNZTA3WT4 (Low Grade Glioma)
How it was run: as §1

[16] = system: SW1710 (Bladder Carcinoma)
How it was run: as §1

[17] = system: SNU-449 (Hepatocellular Carcinoma)
How it was run: as §1

[18] = system: LOXIMVI (Melanoma)
How it was run: as §1

[19] = system: L-428 (Hodgkin's Lymphoma)
How it was run: as §1

[20] = system: LS-123 (Colorectal Carcinoma)
How it was run: as §1

Row | SMILES | combination Emax [1] | combination Emax [2] | combination Emax [3] | combination Emax [4] | combination Emax [5] | combination Emax [6] | combination Emax [7] | combination Emax [8] | combination Emax [9] | combination Emax [10] | combination Emax [11] | combination Emax [12] | combination Emax [13] | combination Emax [14] | combination Emax [15] | combination Emax [16] | combination Emax [17] | combination Emax [18] | combination Emax [19] | combination Emax [20]
1 | NC1(C(=O)N[C@@H](CCO)c2ccc(Cl)cc2)CCN(c2ncnc3[nH]ccc23)CC1 [Capivasertib] + CC(C)n1c(=O)n(C)c2cnc3cc(F)c(-c4ccc(OCCCN5CCCCC5)nc4)cc3c21 [AZD1390] (first compound max 10 µM, 7x7, partner max 0.3 µM) | 0.199 | 0.622 | 0.882 | 0.332 | 0.343 | 0.209 | 0.225 | 0.34 | 0.512 | 0.521 | 0.511 | 0.109 | 0.392 | 0.26 | 0.372 | 0.348 | 0.174 | 0.401 | 0.162 | 0.325
2 | NC1(C(=O)N[C@@H](CCO)c2ccc(Cl)cc2)CCN(c2ncnc3[nH]ccc23)CC1 [Capivasertib] + CCN(CCO)CCCOc1ccc2c(Nc3cc(CC(=O)Nc4cccc(F)c4)[nH]n3)ncnc2c1 [AZD2811] (first compound max 10 µM, 7x7, partner max 1 µM) | 0.23 | 0.638 | 0.966 | 0.403 | 0.992 | 0.249 | 0.663 | 0.515 | 0.669 | 1 | 0.611 | 0.156 | 0.686 | 0.299 | 0.475 | 0.36 | 0.187 | 0.517 | 0.302 | 0.398
3 | NC1(C(=O)N[C@@H](CCO)c2ccc(Cl)cc2)CCN(c2ncnc3[nH]ccc23)CC1 [Capivasertib] + COc1nnc2ccc(N3CCC(c4ccc(OCCN5CCN(C)C(=O)[C@H]5C)cc4)CC3)nn12 [AZD5153] (first compound max 10 µM, 7x7, partner max 1 µM) | 0.423 | 0.678 | 1 | 0.599 | 0.667 | 0.41 | 0.854 | 0.473 | 0.724 | 0.9 | 0.948 | 0.223 | 0.805 | 0.801 | 0.57 | 0.587 | 0.224 | 0.952 | 0.742 | 0.418
4 | NC1(C(=O)N[C@@H](CCO)c2ccc(Cl)cc2)CCN(c2ncnc3[nH]ccc23)CC1 [Capivasertib] + C[C@@H]1COCCN1C2=NC(=NC(=C2)C3(CC3)[S@](=N)(=O)C)C4=C5C=CNC5=NC=C4 [AZD6738] (first compound max 10 µM, 7x7, partner max 10 µM) | 0.518 | 0.869 | 1 | 0.582 | 0.712 | 0.542 | 0.973 | 0.533 | 0.705 | 0.99 | 0.753 | 0.165 | 0.873 | 0.829 | 0.79 | 0.596 | 0.262 | 0.779 | 0.77 | 0.457
5 | NC1(C(=O)N[C@@H](CCO)c2ccc(Cl)cc2)CCN(c2ncnc3[nH]ccc23)CC1 [Capivasertib] + Cn1cnc2c(F)c(Nc3ccc(Br)cc3Cl)c(C(=O)NOCCO)cc21 [Selumetinib] (first compound max 10 µM, 7x7, partner max 10 µM) | 0.253 | 0.734 | 0.92 | 0.691 | 0.303 | 0.398 | 0.461 | 0.336 | 0.653 | 0.726 | 0.453 | 0.13 | 0.849 | 0.615 | 0.445 | 0.409 | 0.205 | 0.782 | 0.126 | 0.555
6 | COc1cccc2c1C(=O)c1c(O)c3c(c(O)c1C2=O)C[C@@](O)(C(=O)CO)C[C@@H]3O[C@H]1C[C@H](N)[C@H](O)[C@H](C)O1 [Doxorubicin] + Cc1cc2ncnn2cc1Nc1ncc2c(n1)n(C1CCOCC1)c(=O)n2C [AZD7648] (first compound max 1 µM, 7x7, partner max 10 µM) | 0.499 | 0.853 | 1 | 0.737 | 0.693 | 0.711 | 0.97 | 0.823 | 0.945 | 1 | 0.893 | 0.879 | 0.6 | 0.921 | 0.647 | 0.665 | 0.173 | 0.952 | 0.937 | 0.87
7 | CS(=O)(=O)CCNCc1ccc(-c2ccc3ncnc(Nc4ccc(OCc5cccc(F)c5)c(Cl)c4)c3c2)o1 [Lapatinib] + C[C@@H](Oc1cc(-c2cnn(C3CCNCC3)c2)cnc1N)c1c(Cl)ccc(F)c1Cl [Crizotinib] (first compound max 10 µM, 7x7, partner max 10 µM) | 0.859 | 0.869 | 0.966 | 0.876 | 0.952 | 0.872 | 0.973 | 0.449 | 0.82 | 1 | 0.936 | 0.842 | 0.979 | 0.825 | 0.872 | 0.846 | 0.827 | 0.977 | 0.913 | 0.746
8 | CC(=O)c1c(C)c2cnc(Nc3ccc(N4CCNCC4)cn3)nc2n(C2CCCC2)c1=O [Palbociclib] + CC1(C)CCC(CN2CCN(c3ccc(C(=O)NS(=O)(=O)c4ccc(NCC5CCOCC5)c([N+](=O)[O-])c4)c(Oc4cnc5[nH]ccc5c4)c3)CC2)=C(c2ccc(Cl)cc2)C1 [Venetoclax] (first compound max 10 µM, 7x7, partner max 1 µM) | 0.0741 | 0.326 | 0.92 | 0.24 | 0.685 | 0.117 | 0.699 | 0.118 | 0.231 | 0.931 | 0.203 | 0.132 | 0.176 | 0.47 | 0.307 | 0.246 | 0.272 | 0.515 | 0.467 | 0.138
9 | CC(=O)c1c(C)c2cnc(Nc3ccc(N4CCNCC4)cn3)nc2n(C2CCCC2)c1=O [Palbociclib] + Cc1c2c(nn1C)CSCc1cc(n(C)n1)CSc1cc(c3ccccc3c1)OCCCc1c(C(=O)O)n(C)c3c-2c(Cl)ccc13 [AZD5991] (first compound max 10 µM, 7x7, partner max 1 µM) | 0.39 | 0.406 | 0.928 | 0.299 | 0.808 | 0.0925 | 0.973 | 0.213 | 0.305 | 1 | 0.605 | 0.126 | 0.263 | 0.538 | 0.411 | 0.29 | 0.335 | 0.543 | 0.353 | 0.207
10 | CC(=O)c1c(C)c2cnc(Nc3ccc(N4CCNCC4)cn3)nc2n(C2CCCC2)c1=O [Palbociclib] + Cn1cnc2c(F)c(Nc3ccc(Br)cc3Cl)c(C(=O)NOCCO)cc21 [Selumetinib] (first compound max 10 µM, 7x7, partner max 10 µM) | 0.104 | 0.358 | 0.886 | 0.49 | 0.739 | 0.141 | 0.771 | 0.113 | 0.314 | 0.697 | 0.168 | 0.124 | 0.64 | 0.711 | 0.333 | 0.339 | 0.338 | 0.744 | 0.395 | 0.428
11 | COc1cccc(OCCCN)c1-c1cc(Nc2cnc(C#N)cn2)n[nH]1 [Prexasertib] + C=CCn1c(=O)c2cnc(Nc3ccc(N4CCN(C)CC4)cc3)nc2n1-c1cccc(C(C)(C)O)n1 [AZD1775] (first compound max 1 µM, partner max 1 µM) | 0.91 | 0.977 | 1 | 0.78 | 1 | 0.921 | 1 | 0.308 | 0.951 | 0.989 | 0.683 | 0.795 | 0.951 | 0.969 | 0.91 | 0.823 | 0.439 | 0.859 | 0.955 | 0.828
12 | COc1cccc(OCCCN)c1-c1cc(Nc2cnc(C#N)cn2)n[nH]1 [Prexasertib] + CCc1c2c(nc3ccc(O)cc13)-c1cc3c(c(=O)n1C2)COC(=O)[C@]3(O)CC [SN-38] (first compound max 1 µM, 7x7, partner max 0.3 µM) | 0.865 | 0.996 | 1 | 0.813 | 1 | 0.996 | 1 | 0.471 | 0.993 | 0.993 | 0.749 | 0.79 | 1 | 0.999 | 0.949 | 0.86 | 0.531 | 0.875 | 0.979 | 0.871
13 | COc1cccc(OCCCN)c1-c1cc(Nc2cnc(C#N)cn2)n[nH]1 [Prexasertib] + CN(C)CCCOc1ccc(-c2ccc3ncc4c(c3c2)n(C2CCOCC2)c(=O)n4C)cn1 [AZD0156] (first compound max 1 µM, 7x7, partner max 1 µM) | 0.859 | 0.936 | 1 | 0.78 | 0.97 | 0.895 | 1 | 0.193 | 0.843 | 0.979 | 0.756 | 0.594 | 0.925 | 0.926 | 0.885 | 0.794 | 0.326 | 0.862 | 0.958 | 0.752
